Reference: US11530186B2, “Inhibitors for the β-catenin / T-cell factor protein-protein interaction” (H. LEE MOFFITT CANCER CENTER AND RESEARCH INSTITUTE, INC., priority 2018, dated 2022)
Like-named read-outs stand apart in the source and are kept apart here.

Target: T1, β-catenin/Tcf protein-protein interaction (Homo sapiens, UniProt P35222)
T1 construct: Wild-type β-catenin (residues 138-781) were cloned into a pET-28b vector; 6×histidine (C); made in house; host or cells: E. coli BL21 DE3
T1 sequence (P35222 138-781): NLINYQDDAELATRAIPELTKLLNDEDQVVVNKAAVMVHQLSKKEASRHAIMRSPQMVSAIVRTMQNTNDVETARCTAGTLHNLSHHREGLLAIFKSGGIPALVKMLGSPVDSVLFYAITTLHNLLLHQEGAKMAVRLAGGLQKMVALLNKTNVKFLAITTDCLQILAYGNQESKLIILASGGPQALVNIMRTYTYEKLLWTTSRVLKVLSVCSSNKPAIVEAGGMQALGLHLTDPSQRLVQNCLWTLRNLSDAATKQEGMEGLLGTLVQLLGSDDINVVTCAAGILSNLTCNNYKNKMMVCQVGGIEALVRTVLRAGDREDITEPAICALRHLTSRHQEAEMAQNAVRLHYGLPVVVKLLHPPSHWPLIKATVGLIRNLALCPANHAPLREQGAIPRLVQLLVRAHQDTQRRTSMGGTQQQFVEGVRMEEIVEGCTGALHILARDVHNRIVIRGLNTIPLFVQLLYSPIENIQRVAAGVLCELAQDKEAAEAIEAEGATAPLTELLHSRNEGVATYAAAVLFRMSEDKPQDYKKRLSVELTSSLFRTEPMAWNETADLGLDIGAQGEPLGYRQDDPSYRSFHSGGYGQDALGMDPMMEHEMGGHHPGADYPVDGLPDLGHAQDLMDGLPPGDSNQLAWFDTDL
Test: FP competitive inhibition assay
Format: binding
Procedure: Protein Expression and Purification. Wild-type β-catenin (residues 138-781) were cloned into a pET-28b vector carrying a C-terminal 6×histidine (Novagen) and transformed into E. coli BL21 DE3 (Novagen). Cells were cultured in LB medium with 30 μg/mL kanamycin until the OD600 was approximately 0.8, and then protein expression was induced with 400 μM of IPTG at 20° C. overnight. Cells were lysed by sonication. The proteins were purified by Ni-NTA affinity chromatography (30210, Qiagen) and dialyzed against a buffer containing 20 mM of Tris (pH 8.8), 100 mM NaCl, 10% glycerol, and 3 mM DTT. The purity of β-catenin was set to >95% as determined by SDS-PAGE gel analysis. Native non-denaturing gel electrophoresis experiment and the thermal-shift assay on an iCycler iQ Real Time Detection System (Bio-Rad) were performed for each purified protein. In the thermal shift assay, protein unfolding was evaluated through measuring the fluorescence changes of fluorescent dye Sypro Orange with purified β-catenin proteins. A temperature increment of 1° C./min was applied to monitor protein stability and detect protein aggregation. CD spectra were measured on a J-815 spectropolarimeter (Jasco). All spectra were recorded using a 1 mm path-length quartz cell. The CD spectra were averaged over three scans, and the wavelength was scanned from 260 to 190 nm in step of 1 nm. All spectra were recorded at room temperature, and the baseline was corrected by subtracting the CD spectra of a blank control containing all of the substances except protein. Samples were prepared at a concentration around 1-5 μM in a buffer of 10 mM potassium phosphate and 100 mM potassium fluoride at pH 7.0 to ensure that the transmission of light through the sample was not restricted. All proteins were stable, and no aggregation was observed under storage or assay conditions. Proteins were aliquoted and stored at −80° C. C-terminally fluorescein-labeled human Tcf4 (residues 7-51) was synthesized and HPLC purified with purity >95%. The structures were validated by LC/MS (liquid chromatography/mass spectrometry).
FP Assays. The procedures for the FP competitive inhibition assays have been described previously (Zhang, M.; Huang, Z.; Yu, B.; Ji, H. New homogeneous high-throughput assays for inhibitors of β-catenin/Tcf protein-protein interactions Anal. Biochem. 2012, 424, 57-63; Zhang, M.; Catrow, J. L.; Ji, H. High-throughput selectivity assays for small-molecule inhibitors of β-catenin/T-cell factor protein-protein interactions. ACS Med. Chem. Lett. 2013, 4, 306-311). Briefly, all of the tested compounds were prepared as 10 mM DMSO stocks. In the primary screen, the concentrations of the compounds and DMSO were set to 50 μM and 1% (v/v). Only the compounds which FP signal decreases were greater than 50% in the single-point β-catenin/Tcf assay were evaluated by counter screen. […] In the FP competitive inhibition assay, 10 nM human β-catenin and 2.5 nM of C-terminally fluorescein-labeled human Tcf4 were incubated in an assay buffer of 137 mM NaCl, 2.7 mM KCl, 10 mM Na2HPO4, 2 mM KH2PO4, 100 μg/mL of bovine γ-globulin, and 0.01% Triton-X100 for 15 min at 4° C. Bovine γ-globulin and Triton-X100 were included in the assay buffer to decrease the likelihood of compound acting by aggregate formation. Different concentrations of the tested compounds in the assay buffer were added to each test plate to make a final volume of 100 μL. Each assay plate was covered black and gently mixed on an orbital shaker at 4° C. for 1.5 h to reach equilibrium before the polarization values were read. The IC50 value was determined by nonlinear least-square analysis of GraphPad Prism 5.0. The Ki values were derived (Nikolovska-Coleska, Z.; Wang, R.; Fang, X.; Pan, H.; Tomita, Y.; Li, P.; Roller, P. P.; Krajewski, K.; Saito, N. G.; Stuckey, J. A.; Wang, S. Development and optimization of a binding assay for the XIAP BIR3 domain using fluorescence polarization. Anal. Biochem. 2004, 332, 261-273). […]

[1] = Assay 1, mean ± SD (n = 3), read-out: Ki ± SD, Assay 1
[2] = Assay 2, mean ± SD (n = 3), read-out: Ki ± SD, Assay 2
[3] = Assay 3, mean ± SD (n = 3), read-out: Ki ± SD, Assay 3
[4] = Assay 4, mean ± SD (n = 3), read-out: Ki ± SD, Assay 4

| Compound | Ki [1] [µM] | Ki [2] [µM] | Ki [3] [µM] | Ki [4] [µM] |
| --- | --- | --- | --- | --- |
| COc1ccc2sc(CCc3c(CCc4ccc(Cl)cc4)c4cc(C(=O)NCC5CCOC5)ccc4n3CCc3nn[nH]n3)nc2c1 (stereo not shown) [Compound 65, 1-(2-(2H-tetrazol-5-yl)ethyl)-3-(4-chlorophenethyl)-2-(2-(5-methoxybenzo[d]thiazol-2-yl)ethyl)-N-((tetrahydrofuran-3-yl)methyl)-1H-indole-5-carboxamide] | 6.1 ± 0.76 |  |  |  |
| COc1ccc2sc(CCc3c(CCc4ccc(Cl)cc4)c4cc(C(=O)Nc5ccc(Cl)cc5)ccc4n3CCc3nn[nH]n3)nc2c1 [Compound 47, 1-(2-(2H-tetrazol-5-yl)ethyl)-3-(4-chlorophenethyl)-N-(4-chlorophenyl)-2-(2-(5-methoxybenzo[d]thiazol-2-yl)ethyl)-1H-indole-5-carboxamide] | 7.4 ± 1.4 | 10 ± 0.66 | 2.1 ± 0.26 | 2.1 ± 0.27 |
| Cc1c(C)n(CCc2nn[nH]n2)c2ccccc12 [Compound 3, 1-(2-(2H-tetrazol-5-yl)ethyl)-2,3-dimethyl-1H-indole] | 250 ± 1.2 |  |  |  |
| O=C(O)c1ccc2c(c1)c(CCc1ccncc1)cn2CCc1nn[nH]n1 [Compound 16, 1-(2-(2H-tetrazol-5-yl)ethyl)-3-(2-(pyridin-4-yl)ethyl)-1H-indole-5-carboxylic acid] | 18 ± 1.6 | 18 ± 0.67 |  |  |
| CNC(=O)c1ccc2c(c1)c(CCc1ccc(C)cc1)c(-c1ccsc1)n2CCc1nn[nH]n1 [Compound 89, 1-(2-(2H-tetrazol-5-yl)ethyl)-N-methyl-3-(4-methylphenethyl)-2-(thiophen-3-yl)-1H-indole-5-carboxamide] | > 24 |  |  |  |
| O=C(O)CCn1c(CCc2nc3ccccc3s2)c(CCc2ccc(F)cc2)c2cc(C(=O)O)ccc21 [Compound 38, 2-(2-(benzo[d]thiazol-2-yl)ethyl)-1-(2-carboxyethyl)-3-(4-fluorophenethyl)-1H-indole-5-carboxylic acid] | 19 ± 2.8 |  |  |  |
| Cc1ccc(CCc2c(-c3cccnc3)n(CCc3nn[nH]n3)c3ccc(C(=O)O)cc23)cc1 [Compound 82, 1-(2-(2H-tetrazol-5-yl)ethyl)-3-(4-methylphenethyl)-2-(pyridin-3-yl)-1H-indole-5-carboxylic acid] | 8.4 ± 0.58 | 30 ± 1.9 |  |  |
| COc1ccc2sc(CCc3c(CCc4ccc(Cl)cc4)c4cc(C(=O)N[C@H]5CC[C@@H](N)CC5)ccc4n3CCc3nn[nH]n3)nc2c1 [Compound 68, (1s,4s)-4-(1-(2-(2H-tetrazol-5-yl)ethyl)-3-(4-chlorophenethyl)-2-(2-(5-methoxybenzo[d]thiazol-2-yl)ethyl)-1H-indole-5-carboxamido)cyclohexan-1-aminium] | > 24 | > 22 |  |  |
| O=C(O)CCn1c(CCc2nc3ccccc3s2)c(CCc2ccc(Cl)cc2)c2cc(C(=O)O)ccc21 [Compound 39, 2-(2-(benzo[d]thiazol-2-yl)ethyl)-1-(2-carboxyethyl)-3-(4-chlorophenethyl)-1H-indole-5-carboxylic acid] | 7.9 ± 1.5 | 1.4 ± 0.45 |  |  |
| Cc1ccc(CCc2cn(CCC(=O)O)c3ccc(C(=O)O)cc23)cc1 [Compound 24, 1-(2-carboxyethyl)-3-(4-methylphenethyl)-1H-indole-5-carboxylic acid] | 77 ± 4.5 |  |  |  |
| Cc1ccc(CCc2c(-c3ccncc3)n(CCc3nn[nH]n3)c3ccc(C(=O)O)cc23)cc1 [Compound 83, 1-(2-(2H-tetrazol-5-yl)ethyl)-3-(4-methylphenethyl)-2-(pyridin-4-yl)-1H-indole-5-carboxylic acid] | 20 ± 1.1 |  |  |  |

Stronger by Ki [1], values ahead:

| Ki [1] [µM] | Ki [2] [µM] | Ki [3] [µM] | Ki [4] [µM] | Compound |
| --- | --- | --- | --- | --- |
| 5.8 ± 1.3 |  |  |  | Cc1ccc(CCc2c(CCc3nc4ccccc4s3)n(CCC(=O)O)c3ccc(C(=O)O)cc23)cc1 [Compound 40, 2-(2-(benzo[d]thiazol-2-yl)ethyl)-1-(2-carboxyethyl)-3-(4-methylphenethyl)-1H-indole-5-carboxylic acid] |
| 0.18 ± 0.034 | 0.29 ± 0.026 | 0.34 ± 0.023 | 0.45 ± 0.028 | COc1ccc2sc(C#Cc3c(CCc4ccc(Cl)cc4)c4cc(C(=O)O)ccc4n3CCc3nn[nH]n3)nc2c1 [Compound 71, 1-(2-(2H-tetrazol-5-yl)ethyl)-3-(4-chlorophenethyl)-2-((5-methoxybenzo[d]thiazol-2-yl)ethynyl)-1H-indole-5-carboxylic acid] |
| 0.81 ± 0.052 | 8.2 ± 0.19 | 0.52 ± 0.048 |  | O=C(O)c1ccc2c(c1)c(CCC1CCCCC1)c(-c1ccsc1)n2CCc1nn[nH]n1 [Compound 85, 1-(2-(2H-tetrazol-5-yl)ethyl)-3-(2-cyclohexylethyl)-2-(thiophen-3-yl)-1H-indole-5-carboxylic acid] |
| 1.1 ± 0.12 | 1.6 ± 0.23 |  |  | O=C(O)c1ccc2c(c1)c(CCc1ccc(-c3ccccc3)cc1)cn2CCc1nn[nH]n1 [Compound 18, 1-(2-(2H-tetrazol-5-yl)ethyl)-3-(2-([1,1′-biphenyl]-4-yl)ethyl)-1H-indole-5-carboxylic acid] |
| 0.61 ± 0.065 |  |  |  | O=C(O)c1ccc2c(c1)c(CCc1ccc3ccccc3c1)c(CCc1nc3ccccc3s1)n2CCc1nn[nH]n1 [Compound 36, 1-(2-(2H-tetrazol-5-yl)ethyl)-2-(2-(benzo[d]thiazol-2-yl)ethyl)-3-(2-(naphthalen-2-yl)ethyl)-1H-indole-5-carboxylic acid] |
| 1.3 ± 0.4 |  |  |  | COCCOc1ccc2sc(CCc3c(CCc4ccc(Cl)cc4)c4cc(C(=O)NCc5ccc(Cl)cc5)ccc4n3CCc3nn[nH]n3)nc2c1 [Compound 46, 1-(2-(2H-tetrazol-5-yl)ethyl)-N-(4-chlorobenzyl)-3-(4-chlorophenethyl)-2-(2-(5-(2-methoxy-ethoxy)benzo[d]thiazol-2-yl)ethyl)-1H-indole-5-carboxamide] |
| 2.3 ± 0.54 | 0.87 ± 0.33 |  |  | Cc1ccc(CCc2c(CCc3nc4ccccc4s3)n(CCc3nn[nH]n3)c3ccc(C(=O)O)cc23)cc1 [Compound 28, 1-(2-(2H-tetrazol-5-yl)ethyl)-2-(2-(benzo[d]thiazol-2-yl)ethyl)-3-(4-methylphenethyl)-1H-indole-5-carboxylic acid] |
| 1.4 ± 0.2 | 4.3 ± 0.39 |  |  | COc1ccc2sc(CCc3c(CCc4ccc(Cl)cc4)c4cc(C(=O)NCC5CCCCC5)ccc4n3CCc3nn[nH]n3)nc2c1 [Compound 63, 1-(2-(2H-tetrazol-5-yl)ethyl)-3-(4-chlorophenethyl)-N-(cyclohexylmethyl)-2-(2-(5-methoxybenzo[d]thiazol-2-yl)ethyl)-1H-indole-5-carboxamide] |
